Reference: patent US4338334A, “1-[4-(4-Sulfanilyl)phenyl] urea and derivatives in compositions and methods of treating rheumatoid arthritis and immune complex diseases” (priority 1980, dated 1982)

What was measured:
[1] = system: mammalian macrophage membrane; experiment: incorporation of choline into the mammalian macrophage membrane; assay type: cell-based
mice = experiment: acute toxicity as measured by LD50 in mice; assay type: in vivo; conditions: compared with dapsone
lymphocyte = lymphocyte transformation; assay type: cell-based
[2] = system: chick peritoneal macrophages; conditions: Shigeura et al., 1975; cited from earlier work
Marek's disease = conditions: cited from earlier work
methemoglobin = system: methemoglobin; parameters: species or system mice; conditions: mouse, in vivo
[3] = cited from earlier work; for ability to alter the course of the disease / immune complexes as measured by rheumatoid factor titers: rheumatoid arthritis

NC(=O)Nc1ccc(S(=O)(=O)c2ccc(N)cc2)cc1 [1-[4-(4-sulfanilyl)phenyl]urea]
incorporation of choline into the mammalian macrophage membrane [1]: inhibit the incorporation
acute toxicity as measured by LD50 (mice): less acutely toxic than dapsone
lymphocyte transformation (lymphocyte): effect lymphocyte transformation
incorporation of chloline in chick peritoneal macrophages [2]: inhibit the incorporation
lesion incidence of poultry exposed to Marek's disease (Marek's disease): decreasing lesion incidence
mortality of poultry exposed to Marek's disease (Marek's disease): reducing mortality
methemoglobin formation (methemoglobin): significantly less active in producing this toxic syndrome

CC(C)(S)[C@@H](N)C(=O)O [D-penicillamine]
ability to alter the course of the disease [3]: can alter the course of the disease
immune complexes as measured by rheumatoid factor titers [3]: reducing the immune complexes

Nc1ccc(S(=O)(=O)c2ccc(N)cc2)cc1 [Dapsone, 4,4'-diaminodiphenylsulfone]
incorporation of choline into the mammalian macrophage membrane [1]: inhibit the incorporation
lymphocyte transformation (lymphocyte): effect lymphocyte transformation
effectiveness in treating rheumatoid arthritis ([3]; McConkey et al., 1976): effective in treating rheumatoid arthritis

CC(=O)Oc1ccccc1C(=O)O [aspirin]
symptomatic relief of the acute syndrome characterizing rheumatoid arthritis ([3]; in vivo): effective in providing symptomatic relief of the acute syndrome
ability to alter the course of the disease [3]: unable to alter the course of the disease

gold
ability to alter the course of the disease [3]: can alter the course of the disease
immune complexes as measured by rheumatoid factor titers [3]: reducing the immune complexes
